# Molecular target: T1, human recombinant Btk (Homo sapiens, UniProt Q06187)
# T1 construct: purchased Invitrogen Corporation
# Experiment: Human Recombinant Btk Enzyme Assay
# Assay type: biochemical
# Conditions: human recombinant Btk 1 nM, ATP 20 μM, 60 min at room temperature; read-out: IC50 for Inhibition of Btk
# T1 sequence (Q06187 whole entry): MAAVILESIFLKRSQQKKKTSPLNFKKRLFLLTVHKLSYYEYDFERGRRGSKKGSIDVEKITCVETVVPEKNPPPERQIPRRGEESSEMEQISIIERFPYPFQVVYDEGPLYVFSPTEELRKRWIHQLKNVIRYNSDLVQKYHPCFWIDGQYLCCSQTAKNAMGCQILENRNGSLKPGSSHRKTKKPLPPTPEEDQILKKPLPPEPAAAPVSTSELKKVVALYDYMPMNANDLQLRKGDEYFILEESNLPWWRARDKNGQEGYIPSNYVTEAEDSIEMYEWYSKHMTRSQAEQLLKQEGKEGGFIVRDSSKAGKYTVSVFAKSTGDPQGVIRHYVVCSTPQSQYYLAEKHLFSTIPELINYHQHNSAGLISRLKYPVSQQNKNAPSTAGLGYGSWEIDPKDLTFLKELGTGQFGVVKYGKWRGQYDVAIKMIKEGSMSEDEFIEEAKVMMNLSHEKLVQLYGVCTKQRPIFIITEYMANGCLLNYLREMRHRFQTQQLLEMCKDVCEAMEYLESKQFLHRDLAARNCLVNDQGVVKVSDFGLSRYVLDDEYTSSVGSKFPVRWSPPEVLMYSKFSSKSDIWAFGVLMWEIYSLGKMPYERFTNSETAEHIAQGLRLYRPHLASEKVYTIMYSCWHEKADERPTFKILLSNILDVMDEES
row,Compound,IC50
1,"7-(1,2-dihydroxyethyl)-4-(2-methyl-3-(6-methyl-1-oxoisoindolin-2-yl)phenyl)-9H-carbazole-1-carboxamide^[b] [Example 70-12]",1.3 nM
2,Cc1c(NC(=O)c2ccc(F)cc2)cccc1-c1ccc(C(N)=O)c2[nH]c3cc(C(O)CO)ccc3c12 (racemic) [Example 70-2],2.2 nM
3,"Cc1c(-c2ccc(C(N)=O)c3[nH]c4cc(C(O)CO)ccc4c23)cccc1N1Cc2ccccc2C1=O (racemic) [Example 70-3, 7-((RS)-1,2-dihydroxyethyl)-4-(2-methyl-3-(1-oxoisoindolin-2-yl)phenyl)-9H-carbazole-1-carboxamide]",2.3 nM
4,"Cc1ccc2c(c1)C(=O)N(c1cccc(-c3ccc(C(N)=O)c4[nH]c5cc(C(O)CO)ccc5c34)c1C)C2 (racemic) [Example 70-5, 7-((RS)-1,2-dihydroxyethyl)-4-(2-methyl-3-(6-methyl-1-oxoisoindolin-2-yl)phenyl)-9H-carbazole-1-carboxamide]",1.6 nM
5,"Cc1c(-c2ccc(C(N)=O)c3[nH]c4cc(C(O)CO)ccc4c23)cccc1N1Cc2ccc(F)cc2C1=O (racemic) [Example 70-6, 7-((RS)-1,2-dihydroxyethyl)-4-(3-(6-fluoro-1-oxoisoindolin-2-yl)-2-methylphenyl)-9H-carbazole-1-carboxamide]",0.8 nM
6,"Cc1c(-c2ccc(C(N)=O)c3[nH]c4cc(C(=O)N5CCN(C)CC5)ccc4c23)cccc1N(C(C)C)S(C)(=O)=O (single isomer, unassigned) [Example 10-2, 4-(3-(N-isopropylmethylsulfonamido)-2-methylphenyl)-7-(4-methylpiperazine-1-carbonyl)-9H-carbazole-1-carboxamide]",4500 nM
7,"Cc1c(-c2ccc(C(N)=O)c3[nH]c4cc(C(=O)N5CCN(C)CC5)ccc4c23)cccc1N(C(C)C)S(C)(=O)=O (single isomer, unassigned) [Example 10-3, 4-(3-(N-isopropylmethylsulfonamido)-2-methylphenyl)-7-(4-methylpiperazine-1-carbonyl)-9H-carbazole-1-carboxamide]",4900 nM
8,"CN1CCN(C(=O)C2CCc3c([nH]c4c(C(N)=O)ccc(Br)c34)C2)CC1 (centres unmarked) [Example 1-3, 5-bromo-2-(4-methylpiperazine-1-carbonyl)-2,3,4,9-tetrahydro-1H-carbazole-8-carboxamide]",490 nM
9,"CN1CCN(C(=O)c2ccc3c(c2)[nH]c2c(C(N)=O)ccc(-c4nccc5ccccc45)c23)CC1 [Example 2-2, 4-(isoquinolin-1-yl)-7-(4-methylpiperazine-1-carbonyl)-9H-carbazole-1-carboxamide]",1300 nM
10,"CN1CCN(C(=O)c2ccc3c(c2)[nH]c2c(C(N)=O)ccc(-c4cc(F)ccc4F)c23)CC1 [Example 2-12, 4-(2,5-difluorophenyl)-7-(4-methylpiperazine-1-carbonyl)-9H-carbazole-1-carboxamide]",16 nM
11,"CN1CCN(C(=O)c2ccc3c(c2)[nH]c2c(C(N)=O)ccc(-c4cc(Cl)ccc4F)c23)CC1 [Example 2-13, 4-(5-chloro-2-fluorophenyl)-7-(4-methylpiperazine-1-carbonyl)-9H-carbazole-1-carboxamide]",15 nM
12,"NC(=O)c1ccc(-c2cc(C(=O)O)ccc2F)c2c1[nH]c1cc(C(=O)N3CCOCC3)ccc12 [Example 2-16, 3-(1-carbamoyl-7-(morpholine-4-carbonyl)-9H-carbazol-4-yl)-4-fluorobenzoic acid]",16 nM
13,"CN1CCN(C(=O)c2ccc3[nH]c4c(C(N)=O)ccc(-c5ccccc5F)c4c3c2)CC1 [Example 2-18, 4-(2-fluorophenyl)-6-(4-methylpiperazine-1-carbonyl)-9H-carbazole-1-carboxamide]",16 nM
14,"CCNC(=O)c1cc2c(-c3ccc(C(N)=O)c4[nH]c5cc(C(=O)N6CCN(C)CC6)ccc5c34)cccc2[nH]1 [Example 2-24, 4-(2-(ethylcarbamoyl)-1H-indol-4-yl)-7-(4-methylpiperazine-1-carbonyl)-9H-carbazole-1-carboxamide]",800 nM

# Reference: patent US8362065B2, “Carbazole carboxamide compounds useful as kinase inhibitors” (Bristol-Myers Squibb Company, priority 2008, dated 2013)
